Laboratory results published in doi:10.1101/2025.06.09.658245v1 (biorxiv, 2025).

Legend:
hERG [1] = molecular target: T1, hERG (Homo sapiens, UniProt Q12809); test: whole-cell patch clamp, IKr current; assay type: cell-based; conditions: test concentrations 0.3 to 30 µM; HEK cells stably transfected
hERG [2] = molecular target: T1, hERG; test: in vitro; conditions: HEK
hALOX12B = molecular target: T2, hALOX12B (Homo sapiens, UniProt O75342); test: biochemical; conditions: read-out: % inhibition of ALOX12B enzyme activity
T2 sequence (O75342 1-701): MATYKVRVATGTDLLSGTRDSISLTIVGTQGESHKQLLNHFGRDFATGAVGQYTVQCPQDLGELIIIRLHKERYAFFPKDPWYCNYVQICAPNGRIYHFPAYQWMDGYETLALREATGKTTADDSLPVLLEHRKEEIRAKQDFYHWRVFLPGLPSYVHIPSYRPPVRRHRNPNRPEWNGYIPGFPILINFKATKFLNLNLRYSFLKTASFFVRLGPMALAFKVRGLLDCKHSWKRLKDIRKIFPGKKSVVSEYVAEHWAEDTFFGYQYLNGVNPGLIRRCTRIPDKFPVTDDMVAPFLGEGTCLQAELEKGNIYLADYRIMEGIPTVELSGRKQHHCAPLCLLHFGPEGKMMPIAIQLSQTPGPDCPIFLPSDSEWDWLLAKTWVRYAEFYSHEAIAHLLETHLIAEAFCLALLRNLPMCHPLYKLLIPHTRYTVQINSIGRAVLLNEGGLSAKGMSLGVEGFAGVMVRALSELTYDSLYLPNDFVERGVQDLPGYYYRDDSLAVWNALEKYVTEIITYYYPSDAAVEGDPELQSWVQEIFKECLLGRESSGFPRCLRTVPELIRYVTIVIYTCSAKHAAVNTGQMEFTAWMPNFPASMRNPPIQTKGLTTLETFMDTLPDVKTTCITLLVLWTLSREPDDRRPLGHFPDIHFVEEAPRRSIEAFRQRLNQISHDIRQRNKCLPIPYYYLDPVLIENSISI

hERG [3] = molecular target: T1, hERG; test: in vitro; conditions: HEK; remark: listed apart in the source
in vitro [4] = conditions: mouse, liver microsomes
in vitro [5] = conditions: mouse, liver microsomes; remark: listed apart in the source

T1 sequence (Q12809 whole entry): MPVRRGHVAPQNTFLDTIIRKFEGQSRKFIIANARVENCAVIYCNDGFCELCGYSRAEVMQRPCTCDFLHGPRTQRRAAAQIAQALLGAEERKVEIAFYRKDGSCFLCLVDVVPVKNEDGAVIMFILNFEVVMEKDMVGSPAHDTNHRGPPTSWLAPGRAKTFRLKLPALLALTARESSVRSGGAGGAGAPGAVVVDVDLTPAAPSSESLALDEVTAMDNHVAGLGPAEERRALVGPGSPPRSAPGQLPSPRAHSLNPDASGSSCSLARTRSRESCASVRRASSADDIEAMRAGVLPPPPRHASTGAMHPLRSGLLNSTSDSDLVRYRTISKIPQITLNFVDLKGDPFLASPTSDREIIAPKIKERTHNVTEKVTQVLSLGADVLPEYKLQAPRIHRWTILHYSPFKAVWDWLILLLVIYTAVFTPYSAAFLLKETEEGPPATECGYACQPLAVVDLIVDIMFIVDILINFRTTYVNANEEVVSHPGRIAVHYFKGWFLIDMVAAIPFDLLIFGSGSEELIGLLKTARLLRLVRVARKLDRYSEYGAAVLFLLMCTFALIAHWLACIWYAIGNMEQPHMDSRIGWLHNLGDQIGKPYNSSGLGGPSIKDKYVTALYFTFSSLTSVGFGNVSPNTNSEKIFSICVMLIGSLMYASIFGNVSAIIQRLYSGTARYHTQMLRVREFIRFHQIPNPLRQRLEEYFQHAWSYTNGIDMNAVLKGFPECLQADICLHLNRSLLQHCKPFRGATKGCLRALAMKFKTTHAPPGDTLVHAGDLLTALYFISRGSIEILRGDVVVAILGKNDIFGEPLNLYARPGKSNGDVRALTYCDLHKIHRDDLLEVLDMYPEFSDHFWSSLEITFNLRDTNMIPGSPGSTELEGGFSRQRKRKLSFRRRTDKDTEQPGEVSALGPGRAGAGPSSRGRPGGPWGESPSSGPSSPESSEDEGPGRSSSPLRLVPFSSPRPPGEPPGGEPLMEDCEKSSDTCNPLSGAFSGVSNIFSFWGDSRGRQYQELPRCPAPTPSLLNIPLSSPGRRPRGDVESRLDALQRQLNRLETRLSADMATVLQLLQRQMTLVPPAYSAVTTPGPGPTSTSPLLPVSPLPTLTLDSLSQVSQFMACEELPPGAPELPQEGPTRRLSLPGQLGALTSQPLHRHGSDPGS

inhibition at 10 µM (hALOX12B)	inhibition at 100 µM (hALOX12B)	inhibition at 200 µM (hALOX12B)	half-life at 5 µM (in vitro [4])	microsomal CLint at 5 µM (in vitro [5])	SMILES	% reduction of hERG current at 0.3 to 30 μM (hERG [1])	inhibition at 0.3 µM (hERG [2])	inhibition at 1 µM (hERG [2])	inhibition at 3 µM (hERG [2])	inhibition at 10 µM (hERG [2])	inhibition at 30 µM (hERG [2])	inhibition at 0.1 µM (hERG [3])
–	–	–	–	–	Nc1ccc(O)cc1-c1cc(=O)c2ccccc2o1 [6a]	9-14%	–	–	–	–	–	–
~23%	~40%	~52%	8.25 h	5.6 µL/min/mg	Nc1ccc(O)cc1-c1cc(=O)c2ccccc2o1 [6a, 2-(2-amino-5-hydroxyphenyl)-4H-chromen-4-one]	–	13.3%	14.1%	10.6%	10.9%	9.05%	-8.53%
